According to publication PMC9696832, “Pyrazole-Based Thrombin Inhibitors with a Serine-Trapping Mechanism of Action: Synthesis and Biological Activity” (Pharmaceuticals, 2022):
Where two headings read alike, the source gives them in different places.

Key:
[1] = biological target: T1, human β-FXIIa (Homo sapiens, UniProt P00748); assay: Serine protease inhibition assay, fluorogenic substrate: FXIIa; type: biochemical; conditions: for IC50: read-out: Serine Protease IC50 ± SD, FXIIa
T1 construct: human β-FXIIa, HFXIIAB; purchased Molecular Innovations HFXIIAB
T1 sequence (P00748 373-615 limits assumed, other chains not shown): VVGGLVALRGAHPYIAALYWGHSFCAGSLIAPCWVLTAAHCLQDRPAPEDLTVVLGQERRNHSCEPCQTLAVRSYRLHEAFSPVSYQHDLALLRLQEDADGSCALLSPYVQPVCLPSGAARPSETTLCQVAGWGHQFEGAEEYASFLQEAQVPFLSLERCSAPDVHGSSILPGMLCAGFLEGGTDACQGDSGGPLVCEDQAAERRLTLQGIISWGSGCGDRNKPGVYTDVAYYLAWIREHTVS
Description: Serine protease inhibition assays. The inhibitory activity of synthesized compounds towards thrombin, FXIIa, FXa, FXIa, plasmin, plasma kallikrein, chymotrypsin, and trypsin was measured by quantifying the hydrolysis rate of the fluorogenic substrate as reported previously. Briefly, the activity was tested in buffer (10 mM Tris-Cl, 150 mM NaCl, 10 mM MgCl2·6H2O, 1 mM CaCl2·2H2O, 0.1% w/v BSA, 0.01% v/v Triton-X100, pH = 7.4) utilizing clear flat-bottom, black polystyrene 96 well-plates. […] Dilutions of test-compounds ranging from 2 nM to 32 µM (final concentrations) in DMSO were prepared. The fluorogenic substrate solution was added into the wells followed by the addition of 2 µL of test-compounds solution, and the reaction was triggered by addition of the enzyme solution (final testing volume–152 µL). In case of blank (substrate + buffer) and control (substrate + enzyme) wells, 2 µL of DMSO was added instead of the test-compounds’ solution. Fluorescence intensity was measured with Microplate Reader Mithras LB 940 (Berthold Technologies, excitation at 355 nm, emission at 460 nm) for a period of 1 h (thrombin, FXIIa, FXa, FXIa, and trypsin), 30 min (plasma kallikrein, chymotrypsin), or 15 min (plasmin) with a read every minute. The reactions were performed at 25 °C. To derive IC50 values, endpoint RFU (single fluorescence reading) was used. Sigmoidal curves were prepared in GraphPad Prism software and IC50 values were derived from the fitted curves.

[2] = biological target: T2, human α-thrombin (Homo sapiens, UniProt P00734); assay: Serine protease inhibition assay, fluorogenic substrate: thrombin; type: biochemical
T2 construct: human α-thrombin (active) protein; purchased antibodies-online ABIN2127880
Description: Serine protease inhibition assays. The inhibitory activity of synthesized compounds towards thrombin, FXIIa, FXa, FXIa, plasmin, plasma kallikrein, chymotrypsin, and trypsin was measured by quantifying the hydrolysis rate of the fluorogenic substrate as reported previously [14, 17]. Briefly, the activity was tested in buffer (10 mM Tris-Cl, 150 mM NaCl, 10 mM MgCl2·6H2O, 1 mM CaCl2·2H2O, 0.1% w/v BSA, 0.01% v/v Triton-X100, pH = 7.4) utilizing clear flat-bottom, black polystyrene 96 well-plates. […] The fluorogenic substrate solution was added into the wells followed by the addition of 2 µL of test-compounds solution, and the reaction was triggered by addition of the enzyme solution (final testing volume–152 µL). In case of blank (substrate + buffer) and control (substrate + enzyme) wells, 2 µL of DMSO was added instead of the test-compounds’ solution. […] To derive IC50 values, endpoint RFU (single fluorescence reading) was used. Sigmoidal curves were prepared in GraphPad Prism software and IC50 values were derived from the fitted curves [14, 17].

[3] = read-out: Serine Protease IC50 ± SD, Thrombin
[4] = [S]0 = 25 µM Boc-Val-Pro-Arg-AMC, Km = 18 ± 1 µM, triplicate, 25 °C, read-out: Serine Protease IC50 ± SD, Thrombin

| SMILES | melting point | IC50 [1] [µM] | IC50 [2, 3] [µM] | also measured |
| --- | --- | --- | --- | --- |
| O=c1c2ccccc2n(Cc2ccco2)c2cc(-c3cccnc3)nn12 [10d, 4-[(furan-2-yl)methyl]-2-(pyridin-3-yl)pyrazolo[5,1-b]quinazolin-9(4H)-one] | 272 °C | > 5 | > 5 | – |
| O=c1[nH]c2nc(-c3cccnc3)nn2c2ccccc12 [compound 21, 2-(pyridin-3-yl)-[1,2,4]triazolo[1,5-a]quinazolin-5(4H)-one] | – | > 5 | > 5 | – |
| O=C(c1ccccc1I)n1nc(-c2cccnc2)cc1NCc1ccccc1 [9a, [5-(benzylamino)-3-(pyridin-3-yl)-1H-pyrazol-1-yl](2-iodophenyl)methanone] | 115 °C | > 5 | > 5 | – |
| O=C(c1ccccc1I)n1nc(-c2cccnc2)cc1NCc1ccc(Cl)s1 [9e, (5-{[(5-chlorothiophen-2-yl)methyl]amino}-3-(pyridin-3-yl)-1H-pyrazol-1-yl)(2-iodophenyl)methanone] | – | > 5 | 0.165 ± 0.005 | fold more potent thrombin inhibitor than 3-phenyl-substituted counterpart 9g ([2]; IC50 165 nM vs. 1.3 μM): about 8 fold |
| O=c1c2ccccc2[nH]c2nc(-c3cccnc3)nn12 [compound 20, 2-(pyridin-3-yl)-[1,2,4]triazolo[5,1-b]quinazolin-9(4H)-one] | – | > 5 | > 5 | – |
| O=C(c1ccccc1I)n1nc(C2CCCCC2)cc1NCc1ccc(Cl)s1 [9i, (5-{[(5-chlorothiophen-2-yl)methyl]amino}-3-cyclohexyl-1H-pyrazol-1-yl)(2-iodophenyl)methanone] | – | > 5 | – | thrombin inhibitory properties (in words) [2]: no activity; IC50 [2, 4]: > 5 µM |
| O=C(c1ccccc1I)n1nc(-c2cccnc2)cc1NCc1ccco1 [9d, {5-[(furan-2-ylmethyl)amino]-3-(pyridin-3-yl)-1H-pyrazol-1-yl}(2-iodophenyl)methanone] | 103 to 104 °C | > 5 | > 5 | – |
| O=c1c2ccccc2[nH]c2nc(-c3ccncc3)nn12 [compound 22, 2-(pyridin-4-yl)-[1,2,4]triazolo[5,1-b]quinazolin-9(4H)-one] | – | – | > 5 | – |
| O=c1c2ccccc2n(Cc2ccccc2)c2cc(-c3cccnc3)nn12 [10a, 4-benzyl-2-(pyridin-3-yl)pyrazolo[5,1b]quinazolin-9(4H)-one] | 266 °C | > 5 | > 5 | – |
| COc1ccc(Cn2c3ccccc3c(=O)n3nc(-c4cccnc4)cc23)cc1 [10b, 4-(4-methoxybenzyl)-2-(pyridin-3-yl)pyrazolo[5,1-b]quinazolin-9(4H)-one] | 245 °C | > 5 | > 5 | – |
| COc1ccc(CNc2cc(-c3cccnc3)nn2C(=O)c2ccccc2I)cc1 [9b, (2-iodophenyl){5-[(4-methoxybenzyl)amino]-3-(pyridin-3-yl)-1H-pyrazol-1-yl}methanone] | 136 to 137 °C | > 5 | > 5 | – |
| O=c1c2ccccc2n(Cc2ccc(Cl)s2)c2cc(-c3ccccc3)nn12 [10g, 4-[(5-chlorothiophen-2-yl)methyl]-2-phenylpyrazolo[5,1-b]quinazolin-9(4H)-one] | – | > 5 | > 5 | – |
| O=C(c1ccccc1I)n1nc(-c2cccnc2)cc1NCC1CCCCC1 [9f, {5-[(cyclohexylmethyl)amino]-3-(pyridin-3-yl)-1H-pyrazol-1-yl}(2-iodophenyl)methanone] | – | > 5 | > 5 | – |
| O=c1c2ccccc2n(Cc2ccc(Cl)s2)c2cc(C3CCCCC3)nn12 [10i, 4-[(5-chlorothiophen-2-yl)methyl]-2-cyclohexylpyrazolo[5,1-b]quinazolin-9(4H)-one] | 210 °C | > 5 | > 5 | – |
| O=c1c2ccccc2n(CC2CCCCC2)c2cc(-c3cccnc3)nn12 [10f, 4-(cyclohexylmethyl)-2-(pyridin-3-yl)pyrazolo[5,1-b]quinazolin-9(4H)-one] | – | > 5 | > 5 | – |
| [H]/N=C(/N)c1ccc(NCc2nc3cc(C(=O)N(CCC(=O)O)c4ccccn4)ccc3n2C)cc1 [Dabigatran, reference compound] | – | > 5 | – | – |
| O=C(c1ccccc1I)n1nc(C2CCCCC2)cc1NCc1ccccc1 [9h, [5-(benzylamino)-3-cyclohexyl-1H-pyrazol-1-yl](2-iodophenyl)methanone] | – | > 5 | > 5 | – |
| O=c1[nH]c2cc(-c3cccnc3)nn2c2ccccc12 [compound 15, 2-(pyridin-3-yl)pyrazolo[1,5-a]quinazolin-5(4H)-one] | – | > 5 | > 5 | – |
| O=C(c1ccccc1I)n1nc(-c2ccccc2)cc1NCc1ccc(Cl)s1 [9g, (5-{[(5-chlorothiophen-2-yl)methyl]amino}-3-phenyl-1H-pyrazol-1-yl)(2-iodophenyl)methanone] | 137 to 138 °C | > 5 | – | IC50 [2, 4]: 1.31 ± 0.032 µM; IC50 ([2]; read-out: thrombin IC50): 1.3 µM |
| O=C(Nc1cc(-c2cccnc2)n[nH]1)c1ccccc1I [compound 14, 2-iodo-N-[3-(pyridin-3-yl)-1H-pyrazol-5-yl]benzamide] | – | > 5 | > 5 | – |
| O=c1c2ccccc2n(Cc2ccccc2)c2cc(C3CCCCC3)nn12 [10h, 4-benzyl-2-cyclohexylpyrazolo[5,1-b]quinazolin-9(4H)-one] | 180 to 181 °C | > 5 | > 5 | – |
| O=c1c2ccccc2n(Cc2ccc(Cl)s2)c2cc(-c3cccnc3)nn12 [10e, 4-[(5-chlorothiophen-2-yl)methyl]-2-(pyridin-3-yl)pyrazolo[5,1-b]quinazolin-9(4H)-one] | 248 to 249 °C | > 5 | > 5 | – |
| O=c1[nH]c2nc(-c3ccncc3)nn2c2ccccc12 [compound 23, 2-(pyridin-4-yl)-[1,2,4]triazolo[1,5-a]quinazolin-5(4H)-one] | – | > 5 | > 5 | – |
| O=c1c2ccccc2n(Cc2ccc(Cl)s2)c2nc(-c3cnccn3)nn12 [compound 19, 4-[(5-chlorothiophen-2-yl)methyl]-2-(pyrazin-2-yl)-[1,2,4]triazolo[5,1-b]quinazolin-9(4H)-one] | – | > 5 | > 5 | – |
| O=C(c1ccccc1I)n1nc(-c2cccnc2)cc1NCc1cccc2ccccc12 [9c, (2-iodophenyl)(5-{[(naphthalen-1-yl)methyl]amino}-3-(pyridin-3-yl)-1H-pyrazol-1-yl)methanone] | 137 °C | > 5 | > 5 | – |

Further lines, with some results ahead:

| melting point | IC50 [1] [µM] | IC50 [2, 3] [µM] | SMILES | also measured |
| --- | --- | --- | --- | --- |
| – | > 5 | – | CC(C)(C)C(=O)n1nc(-c2cccnc2)cc1NCc1ccco1 [24d, 1-(5-{[(furan-2-yl)methyl]amino}-3-(pyridin-3-yl)-1H-pyrazol-1-yl)-2,2-dimethylpropan-1-one] | IC50 [2, 4]: 1.31 ± 0.032 µM; IC50 ([2]; read-out: thrombin IC50): ~1.3 µM |
| – | > 5 | > 5 | Nc1cc(-c2ccccc2)nn1C(=O)c1ccccc1 [29b, (5-amino-3-phenyl-1H-pyrazol-1-yl)(phenyl)methanone] | – |
| 130 to 131 °C | > 5 | – | CC(C)(C)C(=O)n1nc(-c2cccnc2)cc1NCc1cccc2ccccc12 [24c, 2,2-dimethyl-1-(5-{[(naphthalen-1-yl)methyl]amino}-3-(pyridin-3-yl)-1H-pyrazol-1-yl)propan-1-one] | IC50 [2, 4]: > 5 µM |
| 130 °C | > 5 | – | COc1ccc(CNc2cc(-c3cccnc3)nn2C(=O)C(C)(C)C)cc1 [24b, 1-{5-[(4-methoxybenzyl)amino]-3-(pyridin-3-yl)-1H-pyrazol-1-yl}-2,2-dimethylpropan-1-one] | IC50 [2, 4]: 1.282 ± 0.009 µM; IC50 ([2]; read-out: thrombin IC50): ~1.3 µM |
| 92 to 93 °C | > 5 | – | CC(C)(C)C(=O)n1nc(C2CCCCC2)cc1NCc1ccc(Cl)s1 [24i, 1-(5-{[(5-chlorothiophen-2-yl)methyl]amino}-3-cyclohexyl-1H-pyrazol-1-yl)-2,2-dimethylpropan-1-one] | IC50 [2, 4]: > 5 µM |
| 47 °C | > 5 | – | CC(C)(C)C(=O)n1nc(C2CCCCC2)cc1NCc1ccccc1 [24h, 1-[5-(benzylamino)-3-cyclohexyl-1H-pyrazol-1-yl]-2,2-dimethylpropan-1-one] | FXIIa inhibitory properties (in words) [1]: inactive; thrombin inhibitory properties (in words) [2]: inactive; IC50 [2, 4]: > 5 µM |
| – | > 5 | – | CC(C)(C)C(=O)n1nc(-c2ccccc2)cc1NCc1ccc(Cl)s1 [24g, 1-(5-{[(5-chlorothiophen-2-yl)methyl]amino}-3-phenyl-1H-pyrazol-1-yl)-2,2-dimethylpropan-1-one] | IC50 [2, 4]: 0.419 ± 0.099 µM |
| 270 °C (dec.) | – | – | O=C(Nc1cc(-c2cccnc2)n[nH]1)c1ccccc1 [26a, N-[3-(pyridin-3-yl)-1H-pyrazol-5-yl]benzamide] | – |
| – | > 5 | > 5 | Nc1cc(-c2cccnc2)nn1C(=O)c1ccccc1 [29a, [5-amino-3-(pyridin-3-yl)-1H-pyrazol-1-yl](phenyl)methanone] | – |
